Measured values from US20250306032A1, “METHODS FOR IDENTIFYING REACTIVE FUNCTIONAL CYSTEINES IN NUCLEAR PROTEINS” (Talus Bioscience, Inc., priority 2022, published 2025).

Experiments:
Type in all cases: cell-based
[1] = molecular target: T1, CCCTC-binding factor (CTCF) (Homo sapiens, UniProt P49711); assay: Reactive cysteine identification by ChESS fractionation and mass spectrometry in THP-1 cells; conditions: 12.5 μM, 4 hours, mass spectrometry
T1 construct: endogenous in cells; host or cells: THP-1
T1 sequence (P49711 1-727): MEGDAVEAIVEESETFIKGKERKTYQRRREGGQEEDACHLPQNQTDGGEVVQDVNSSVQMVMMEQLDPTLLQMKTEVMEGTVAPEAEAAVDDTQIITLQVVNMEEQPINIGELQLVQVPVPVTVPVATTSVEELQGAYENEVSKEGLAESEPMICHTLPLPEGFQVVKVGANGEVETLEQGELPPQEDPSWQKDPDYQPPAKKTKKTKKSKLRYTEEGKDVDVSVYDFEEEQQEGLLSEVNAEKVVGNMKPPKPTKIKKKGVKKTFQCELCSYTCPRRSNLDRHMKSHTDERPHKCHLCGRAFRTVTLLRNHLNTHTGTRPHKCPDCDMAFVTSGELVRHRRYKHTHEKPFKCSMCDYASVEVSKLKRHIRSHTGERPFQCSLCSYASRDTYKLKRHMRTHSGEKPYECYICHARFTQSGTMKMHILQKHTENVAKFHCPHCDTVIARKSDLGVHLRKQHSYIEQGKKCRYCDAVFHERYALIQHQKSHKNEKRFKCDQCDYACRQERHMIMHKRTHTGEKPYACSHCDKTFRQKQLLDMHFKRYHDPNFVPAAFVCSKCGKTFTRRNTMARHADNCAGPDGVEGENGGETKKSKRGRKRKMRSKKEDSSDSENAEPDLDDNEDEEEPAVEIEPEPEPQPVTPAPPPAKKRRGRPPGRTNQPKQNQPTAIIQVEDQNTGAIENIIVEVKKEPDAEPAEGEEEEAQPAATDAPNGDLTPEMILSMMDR
Procedure: (§1) Five million cells, from leukemia, myeloma, or other cancer cell cultures, were treated with 12.5 μM n-methyl iodoacetamide (NM-IAA) in triplicate for 4 hours. The cells were then washed with phosphate-buffered saline (PBS) and fractionated using chromatin enriching salt separation (ChESS). ChESS used four sequential buffer washes of increasing ionic strength to separate the cellular proteome into cytosolic-, nucleoplasm-, euchromatin-, and heterochromatin-enriched fractions, as outlined in FIG. 1. Each of the fractions was digested using trypsin and analyzed using a data-dependent acquisition (DDA) strategy on an Evosep One-ThermoFisher Exploris 480 orbitrap platform. The results were analyzed using the Comet search tool with the mass of the NM-IAA addition as a variable modification on cysteine residues, then filtered at a 1% false discovery rate with Peptide Prophet or mokapot. DDA results were quantified with FlashLFQ. Each sample was also acquired using a data independent acquisition (DIA) approach on the same mass spectrometer in order to accurately quantify the peptides and proteins in each sample. DIA samples were analyzed using EncyclopeDIA with a spectral library that was generated using the results from DDA analysis and Comet search results or using a predicted spectral library from Prosit.
THP-1 acute monocytic leukemia cells were grown to 95% viability. […]

CTCF = molecular target: T2, CTCF (Homo sapiens, UniProt P49711); assay: Movement of transcription factor between ChESS fractions after NM-IAA treatment; conditions: ChESS fractionation after NM-IAA treatment
T2 construct: endogenous in cells; host or cells: THP-1
T2 sequence (P49711 1-727): T1 sequence (P49711 1-727)
Procedure: as §1, with “Prosit. […]” for “Prosit.”

[2] = molecular target: T3, poly(ADP-ribose) polymerase-1 (PARP1) (Homo sapiens, UniProt P09874); assay: Reactive cysteine identification with Biotin-IA in THP-1 cells (mass spectrum); conditions: 10 μM
T3 construct: endogenous in cells; host or cells: THP-1
Procedure: The mass shift associated with NM-IAA is 71.03 Dalton (Da). […] THP-1 cells were treated with 10 μM biotin polyethyleneoxide iodoacetamide (Biotin-IA). Biotin-IA reacted with a cysteine in the peptide SDAYYCTGDVTAWTK (SEQ ID NO: 2) from the poly(ADP-ribose) polymerase-1 (PARP1) protein.

T3 sequence (P09874 whole entry): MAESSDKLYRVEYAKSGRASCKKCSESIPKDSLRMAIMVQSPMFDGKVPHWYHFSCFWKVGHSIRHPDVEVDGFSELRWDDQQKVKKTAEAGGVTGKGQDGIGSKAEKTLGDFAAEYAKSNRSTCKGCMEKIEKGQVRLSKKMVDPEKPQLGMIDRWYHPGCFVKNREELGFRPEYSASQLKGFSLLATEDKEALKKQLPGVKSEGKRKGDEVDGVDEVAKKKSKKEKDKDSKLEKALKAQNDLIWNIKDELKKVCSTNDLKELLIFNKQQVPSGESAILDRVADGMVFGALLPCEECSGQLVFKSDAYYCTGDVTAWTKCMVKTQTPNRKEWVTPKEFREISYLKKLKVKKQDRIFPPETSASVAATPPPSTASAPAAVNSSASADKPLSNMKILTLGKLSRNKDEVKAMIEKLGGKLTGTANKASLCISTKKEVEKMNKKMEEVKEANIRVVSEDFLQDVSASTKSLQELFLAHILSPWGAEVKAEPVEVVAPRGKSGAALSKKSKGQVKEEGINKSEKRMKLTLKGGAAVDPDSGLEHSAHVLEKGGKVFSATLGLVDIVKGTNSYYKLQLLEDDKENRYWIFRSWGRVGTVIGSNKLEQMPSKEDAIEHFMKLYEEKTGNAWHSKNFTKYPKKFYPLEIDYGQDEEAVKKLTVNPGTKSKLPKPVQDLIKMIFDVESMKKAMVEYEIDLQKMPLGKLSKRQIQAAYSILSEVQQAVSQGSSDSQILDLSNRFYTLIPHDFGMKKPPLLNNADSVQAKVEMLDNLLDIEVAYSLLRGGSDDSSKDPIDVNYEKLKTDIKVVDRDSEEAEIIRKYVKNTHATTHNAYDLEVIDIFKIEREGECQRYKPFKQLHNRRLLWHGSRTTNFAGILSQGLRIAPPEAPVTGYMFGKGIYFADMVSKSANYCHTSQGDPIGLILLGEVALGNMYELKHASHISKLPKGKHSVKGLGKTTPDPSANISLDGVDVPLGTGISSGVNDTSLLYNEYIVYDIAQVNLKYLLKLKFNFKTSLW

Row | Molecule | modification of the cysteine in CTCF peptide YHDPNFVPAAFVCSK (SEQ ID NO: 1) [1] | CTCF localisation in ChESS fractions after NM-IAA modification (CTCF) | reaction with a cysteine in PARP1 peptide SDAYYCTGDVTAWTK (SEQ ID NO: 2) [2]
1 | CNC(=O)CI [NM-IAA, n-methyl iodoacetamide] | modified | ejected from heterochromatin and observed in the nucleoplasm fraction | 
2 | biotin polyethyleneoxide iodoacetamide [Biotin-IA] |  |  | reacted
